“Also recorded” adds a separate entry of the source. No end group written: not given here.

The assay concerns human insulin autoantibodies. The assay is described as follows: Competition with 125I-human insulin for binding to human insulin autoantibodies (competitive binding radioassay). The note with it: for affinity / recognition by human insulin autoantibodies: Type I diabetes-associated autoantibodies, relative to human insulin. As to the method:
Insulin autoantibodies isolated from sera of well-characterized first-degree relatives of patients with Type I diabetes mellitus were analyzed in comparative studies by competition with a series of insulins from different species and with insulin analogues. Insulin binding activity was detected using a competitive binding radioassay and expressed in nU of insulin precipitated per ml of sera (1 nU/ml=7.18 fmole/L).

Turning to “Guinea pig insulin: guinea pig insulin; differs from human insulin at 18 positions (Insulin B chain FVSRHLCGSNLVETLYSVCQDDGFFYIPKD; Insulin A chain GIVDQCCTGTCTRHQLQSYCN; ends and bridges not checked; cysteine pairing not given here; UniProt P01329 25-54; P01329 90-110, looked up)”, the “affinity / recognition by human insulin autoantibodies” value was “essentially not recognized; also recorded: reduced”. Moreover, where the note is “autoantibodies isolated from sera of first-degree relatives of Type I diabetes patients”, the “competition with 125I-human insulin for binding to human insulin autoantibodies” value is recorded as “failed to compete”.
As to human proinsulin, the “potency in binding to insulin autoantibodies relative to human insulin” value is given as “at least as potent as human insulin”.
“ovine insulins: ovine insulin; differs from human by three amino acids”: the “affinity / recognition by human insulin autoantibodies” value is given as “high-affinity recognition; also recorded: minimal reduction”.

Values taken from patent publication US5422339A, “Peptides having insulin autoantibody but not insulin receptor binding capacity” (Joslin Diabetes Center, Inc., priority 1994, dated 1995).
